We go through 23 compounds from patent publication US9884854B2, “N-[(pyrimidinylamino)propanyl]-and N[(pyrazinylamino)proppanyl]arylcarboxamides” (Boehringer Ingelheim International GmbH, priority 2016, dated 2018).

In one data set the test system is human MDR1 P-gp. Briefly: Assay D: efflux in MDCK cells transfected with the human MDR1 gene. It is filed as in vitro ADME, canine. The note with it: dog; MDCK-MDR1 monolayers, pH 7.4, 37° C.; read-out: MDCK efflux ratio (BA/AB). On the procedure:
The MDCK assay provides information on the potential of a compound to pass the blood brain barrier. Permeability measurements across polarized, confluent MDCK-MDR1 cell monolayers grown on permeable filter supports are used as an in vitro absorption model: apparent permeability coefficients (PE) of the compounds across the MDCK-MDR1 cell monolayers are measured (pH 7.4, 37° C.) in apical-to-basal (AB) and basal-to-apical (BA) transport direction. The AB permeability (PEAB) represents drug absorption from the blood into the brain and the BA permeability (PEBA) drug efflux from the brain back into the blood via both, passive permeability as well as active transport mechanisms mediated by efflux and uptake transporters that are expressed on the MDCK-MDR1 cells, predominantly by the overexpressed human MDR1 P-gp. Identical or similar permeabilities in both transport directions indicate passive permeation, vectorial permeability points to additional active transport mechanisms. Higher PEBA than PEAB (PEBA/PEAB>5) indicates the involvement of active efflux mediated by MDR1 P-gp, which might compromises the goal to achieve sufficient brain exposure. Therefore this assay provides valuable support for selection of compounds applicable for further in vivo testing. High permeability not limited by efflux at the blood brain barrier is a favourable characteristic for compounds that are to be used for drugs acting primarily in the CNS
D. Assessment of Efflux in Madin-Darby Canine Kidney (MDCK) Cells Transfected with the Human MDR1 Gene
Apparent permeability coefficients (PE) of the compounds across the MDCK-MDR1 cell monolayers are measured (pH 7.4, 37° C.) in apical-to-basal (AB) and basal-to-apical (BA) transport direction. AB permeability (PEAB) represents drug absorption from the blood into the brain and BA permeability (PEBA) drug efflux from the brain back into the blood via both passive permeability as well as active transport mechanisms mediated by efflux and uptake transporters that are expressed on the MDCK-MDR1 cells, predominantly by the overexpressed human MDR1 P-gp. The compounds are assigned to permeability/absorption classes by comparison of the AB permeabilities with the AB permeabilities of reference compounds with known in vitro permeability and oral absorption in the human. Identical or similar permeabilities in both transport directions indicate passive permeation, vectorial permeability points to additional active transport mechanisms. Higher PEBA than PEAB indicates the involvement of active efflux mediated by MDR1 P-gp. Active transport is concentration-dependently saturable.
MDCK-MDR1 cells (1-2×10e5 cells/1 cm2 area) are seeded on filter inserts (Costar transwell polycarbonate or PET filters, 0.4 μm pore size) and cultured (DMEM) for 7 days. Subsequently, the MDR1 expression is boosted by culturing the cells with 5 mM sodium butyrate in full medium for 2 days. Compounds are dissolved in appropriate solvent (like DMSO, 1-20 mM stock solutions). Stock solutions are diluted with HTP-4 buffer (128.13 mM NaCl, 5.36 mM KCl, 1 mM MgSO4, 1.8 mM CaCl2, 4.17 mM NaHCO3, 1.19 mM Na2HPO4×7H2O, 0.41 mM NaH2PO4×H2O, 15 mM HEPES, 20 mM glucose, 0.25% BSA, pH 7.4) to prepare the transport solutions (0.1-300 μM compound, final DMSO<=0.5%). The transport solution (TL) is applied to the apical or basolateral donor side for measuring A-B or B-A permeability (3 filter replicates), respectively. The receiver side contains the same buffer as the donor side. Samples are collected at the start and end of experiment from the donor and at various time intervals for up to 2 hours also from the receiver side for concentration measurement by HPLC-MS/MS or scintillation counting. Sampled receiver volumes are replaced with fresh receiver solution.

The target of another data set is T1, human Orexin 1 receptor (Homo sapiens, UniProt O43613).
T1 construct: stably expressing the full-length human Orexin 1 receptor and the aequorin photoprotein; expressed in transfected cells; host or cells: CHO-K1 (CHO-K1/hOx1), co-expressing aequorin
T1 sequence (O43613 1-425): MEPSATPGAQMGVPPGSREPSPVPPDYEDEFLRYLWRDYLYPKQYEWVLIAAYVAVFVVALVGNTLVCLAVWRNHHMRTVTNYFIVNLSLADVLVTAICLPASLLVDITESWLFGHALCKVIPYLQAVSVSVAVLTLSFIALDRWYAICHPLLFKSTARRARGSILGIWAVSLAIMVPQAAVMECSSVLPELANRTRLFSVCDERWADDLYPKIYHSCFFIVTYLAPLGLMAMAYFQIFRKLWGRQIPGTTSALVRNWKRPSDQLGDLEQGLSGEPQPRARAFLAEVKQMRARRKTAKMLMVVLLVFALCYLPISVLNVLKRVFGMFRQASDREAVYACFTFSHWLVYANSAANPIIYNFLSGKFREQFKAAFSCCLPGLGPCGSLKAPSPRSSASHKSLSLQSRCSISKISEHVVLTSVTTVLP
Briefly: Assay A: OX1R IP1 (in vitro OX1R potency). It is filed as cell-based. From the text: Activation of the orexin receptors expressed in cell lines results in an increase in intracellular IP3 concentration. IP1, a downstream metabolite of IP3, accumulates in cells following receptor activation and is stable in the presence of LiCl. Using Homogeneous Time-Resolved Fluorescence technology with Lumi4-Tb cryptate (commercially available from Cisbio Bioassay.) and a suitable fluorescence plate reader. […] This technique is used to characterize pharmacological modification of the orexin receptors.
A. In Vitro Testing of OX1R Potency: OX1R IP1
IP1 measurements are performed in CHO-K1 cells stably expressing the full-length human Orexin 1 receptor and the aequorin photoprotein. Cells are cultivated in Ham's nutrient mixture F12 medium with 10% fetal calf serum, in a 37° C., 95% humidity and 5% CO2 incubator. The CHO-K1/hOx1 cell mass is expanded to larger cell numbers. The cells are obtained as frozen cells in cryo-vials and stored until use at −150° C. […] In preparation for the assay, 24 hours before the assay, the cells are thawed at 37° C. and immediately diluted with cell culture medium. After centrifugation, the cell pellet is re-suspended in medium and then distributed into the assay plates with a density of 10000 cells/25 μL per well. The plates are incubated for one hour at room temperature to reduce edge effects before they are incubated for 24 hours at 37° C./5% CO2. Compounds are prepared by an 8-point serial dilution in DMSO and a final dilution step into assay buffer (HBSS with 20 mM HEPES, 0.1% BSA and 50 mM LiCl, pH 7.4) to ensure a final DMSO concentration of 1% in the assay.
On the day of the assay, cells in the plate are washed twice with 60 μL assay buffer (20 μL buffer remained in the wells after washing), followed by adding 5 μL per well of compounds diluted in assay buffer. After 15 minutes of incubation at room temperature 5 μL per well of Orexin A peptide (final concentration: 0.5 nM, and/or 50 nM) dissolved in assay buffer is added to the assay plate. The assay plate is incubated for 60 minutes at 37° C. Then 5 μl per well of Anti-IP1-Cryptate Tb solution and 5 μl per well of IP1-d2 dilution are added and the plate is incubated for a further 60 minutes light protected at room temperature. […] 8-point four parametric non-linear curve fitting and determination of IC50 values and Hill slopes is performed using a regular analysis software e.g. AssayExplorer (Accelrys).
Kb values from Assay A (OX1R) and Assay B (OX2R) can then provide a selectivity ratio which is independent of the agonist (Orexin A) concentration.

The target of the next data set is T2, OX2R (Homo sapiens, UniProt O43614).
T2 sequence (O43614 1-444): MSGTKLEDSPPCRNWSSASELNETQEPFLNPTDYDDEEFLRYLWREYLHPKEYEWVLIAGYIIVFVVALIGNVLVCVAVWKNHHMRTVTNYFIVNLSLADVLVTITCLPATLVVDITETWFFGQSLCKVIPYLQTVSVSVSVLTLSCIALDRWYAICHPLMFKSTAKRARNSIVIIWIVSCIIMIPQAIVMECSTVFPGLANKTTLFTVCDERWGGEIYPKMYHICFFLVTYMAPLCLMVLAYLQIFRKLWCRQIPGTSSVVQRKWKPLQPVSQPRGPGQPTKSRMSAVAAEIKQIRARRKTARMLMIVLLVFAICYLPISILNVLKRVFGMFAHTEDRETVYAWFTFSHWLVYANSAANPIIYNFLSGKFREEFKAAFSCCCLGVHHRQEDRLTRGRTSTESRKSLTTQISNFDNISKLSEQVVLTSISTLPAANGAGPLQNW
The conditions noted are these: cited from earlier work; for OX2R pIC50: Table 3 of WO2016/034882; for pIC50: corresponds to pIC50, Table 3 of WO2016/034882.

For a further data set, the target named is T3, OX1R (Homo sapiens, UniProt O43613).
T3 sequence (O43613 1-425): T1 sequence (O43613 1-425)
The conditions noted are these: Table 3 of WO2016/034882; cited from earlier work.

pIC50: −log10 of the molar value. A value given as a limit tells only on which side of the number the result lay.

Regarding `CCN(C(=O)c1nc(C)ccc1-n1cccn1)[C@@H](C)CNc1ncc(C(F)(F)F)cn1` [Example 12], in the data set on human MDR1 P-gp, the efflux ratio is under 3. Moreover, on human Orexin 1 receptor (versus Example 90 in WO2016/034882), the “higher potency at OX1R” value is “at least 3 fold”.

As for `CCN(C(=O)c1cccc(F)c1-c1ncccn1)[C@@H](C)CNc1ncc(C(F)(F)F)cn1` [Example 11], in the data set with human MDR1 P-gp, the efflux ratio was in the range of 3 to 5.

For the compound `CCN(C(=O)c1ccccc1-c1noc(C)n1)[C@@H](C)CNc1ncc(C(F)(F)F)cn1` [Example 14], the efflux ratio in the data set with human MDR1 P-gp was under 3.

With `CCN(C(=O)c1ccc(F)cc1-c1nnc(C)o1)[C@@H](C)CNc1cnc(C(F)(F)F)cn1` [Example 23], the efflux ratio in the data set on human MDR1 P-gp lay in the range of 3 to 5.

For `CCN(C(=O)c1cc(F)cnc1-n1nccn1)[C@@H](C)CNc1ncc(C(F)(F)F)cn1` [Example 10], in the data set on human MDR1 P-gp, the efflux ratio is under 3.

For orientation: pIC50 means −log10 of the IC50, conventionally taken in molar units. As to `CC[C@@H](CNc1ncc(C(F)(F)F)cn1)N(CC)C(=O)c1nc(C)ccc1-n1nccn1` [Ex 73 in WO2016/034882], at OX2R, the “OX2R pIC50” value is on record as under 6.0 and the negative-log IC50 (pIC50) was under 6.00.

`CCN(C(=O)c1cc(F)ccc1-n1nccn1)[C@@H](C)CNc1ncc(C(F)(F)F)cn1` [Example 5]: the efflux ratio in the data set on human MDR1 P-gp is under 3.

Take `CCN(C(=O)c1ccccc1-n1nccn1)[C@@H](C)CNc1cnc(C(F)(F)F)cn1` [Example 22]: the efflux ratio with human MDR1 P-gp lay within 3 to 5.

For the compound `CCN(C(=O)c1cc(F)ccc1-c1ncccn1)[C@@H](C)CNc1ncc(C(F)(F)F)cn1` [Example 15], the efflux ratio with human MDR1 P-gp was under 3.

As for `CCN(C(=O)c1cc(C#N)ccc1-n1nccn1)[C@@H](C)CNc1ncc(C(F)(F)F)cn1` [Example 8], in the data set on human MDR1 P-gp, the efflux ratio was in the range of 3 to 5.

With `CCN(C(=O)c1c(F)cccc1-n1nccn1)[C@@H](C)CNc1ncc(C(F)(F)F)cn1` [Example 7], in the data set with human MDR1 P-gp, the efflux ratio is under 3. For the same compound, on human Orexin 1 receptor (versus Example 91 in WO2016/034882), the “more potent at OX1R” value turned out to be 25 fold.

Turning to `CCN(C(=O)c1c(F)cccc1-c1ncccn1)[C@@H](C)CNc1ncc(C(F)(F)F)cn1` [Example 13], the efflux ratio in the data set on human MDR1 P-gp was under 3.

As to `CCN(C(=O)c1ccc(F)cc1-c1ncccn1)[C@@H](C)CNc1ncc(C(F)(F)F)cn1` [Example 16], the efflux ratio in the data set on human MDR1 P-gp was under 3.

With `CC[C@@H](CNc1ncc(C(F)(F)F)cn1)N(C)C(=O)c1nc(C)ccc1-c1ncccn1` [Ex 84 in WO2016/034882, reference compound], the “OX2R IC50/OX1R IC50” value on OX1R was “Table 3: 526”. Further, the efflux ratio in the data set with human MDR1 P-gp is under 3.

`CCN(C(=O)c1cncnc1-c1ccccc1)[C@@H](C)CNc1ncc(C(F)(F)F)cn1` [Example 20]: in the data set on human MDR1 P-gp, the efflux ratio was under 3.

On to `CCN(C(=O)c1cccc(F)c1-n1nccn1)[C@@H](C)CNc1cnc(C(F)(F)F)cn1` [Example 24], for which the efflux ratio in the data set with human MDR1 P-gp fell in the range of 3 to 5.

Take `CC[C@@H](CNc1ncc(C(F)(F)F)cn1)N(C)C(=O)c1c(F)cccc1-n1nccn1` [Ex 91 in WO2016/034882]: at OX2R, the “OX2R pIC50” value was under 5.1 and the pIC50 is at most 5.10. Also, in the data set on human MDR1 P-gp, the efflux ratio is under 3.

Take `CC[C@@H](CNc1ncc(C(F)(F)F)cn1)N(C)C(=O)c1nc(C)ccc1-n1cccn1` [Ex 90 in WO2016/034882]: the “OX2R IC50/OX1R IC50” value on OX1R was “Table 3: >526”. Besides, the “OX2R pIC50” value on OX2R is listed as under 6.0. In addition, the efflux ratio in the data set with human MDR1 P-gp was under 3.

Regarding `CCN(C(=O)c1nccnc1-c1ccccc1)[C@@H](C)CNc1ncc(C(F)(F)F)cn1` [Example 21], in the data set on human MDR1 P-gp, the efflux ratio is under 3.

`CCN(C(=O)c1ccc(F)cc1-n1nccn1)[C@@H](C)CNc1ncc(C(F)(F)F)cn1` [Example 2]: the efflux ratio in the data set on human MDR1 P-gp is under 3.

For the compound `CCN(C(=O)c1ccc(F)c(F)c1-n1nccn1)[C@@H](C)CNc1ncc(C(F)(F)F)cn1` [Example 4], the efflux ratio in the data set with human MDR1 P-gp is under 3.

In the case of `CCN(C(=O)c1ncccc1-c1ccccc1)[C@@H](C)CNc1ncc(C(F)(F)F)cn1` [Example 19], the efflux ratio with human MDR1 P-gp is under 3.

For the compound `CC[C@@H](CNc1cnc(C(F)(F)F)cn1)N(C)C(=O)c1cc(Cl)ccc1-n1nccn1` [Ex 40 in WO2016/034882, reference compound], the “OX2R IC50/OX1R IC50” value at OX1R is reported as “Table 3: 156”. Further, the efflux ratio with human MDR1 P-gp was under 3.
